In ChEMBL document CHEMBL1201862, “PubChem BioAssay data set” (2004):
“And” between values parts separate entries of the source, which are not always exact repeats. Equal entries are not always repeated.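 Five concentrations, 48 hours, 96-well plates. GI50 = concentration required for 50% inhibition of growth.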 The source made the active and inactive calls. Cut-off read from the data, not from the text of the source: active = GI50 up to about 1.1 µM and inactive = higher.

Tests used:
Assay in all cases: NCI-60 cell line screen, 48 h
[1] = test system: SK-MEL-5
[2] = test system: MCF7
[3] = test system: UACC-257
[4] = test system: ACHN
[5] = test system: MOLT-4
[6] = test system: OVCAR-3
[7] = test system: A549
[8] = test system: HCT-15
[9] = test system: LOX IMVI
[10] = test system: RXF 393
[11] = test system: NCI/ADR-RES
[12] = test system: HT-29
[13] = test system: UO-31
[14] = test system: HOP-62
[15] = test system: HOP-92
[16] = test system: NCI-H226
[17] = test system: NCI-H460
[18] = test system: OVCAR-5
[19] = test system: HCC 2998
[20] = test system: TK-10
[21] = test system: CAKI-1
[22] = test system: SNB-75
[23] = test system: SF-539
[24] = test system: SF-268
[25] = test system: IGROV-1
[26] = test system: OVCAR-8
[27] = test system: MDA-MB-435
[28] = test system: SK-OV-3
[29] = test system: UACC-62
[30] = test system: HCT-116
[31] = test system: DU-145
[32] = test system: K562
[33] = test system: A498
[34] = test system: 786-0
[35] = test system: MDA-N
[36] = test system: RPMI-8226
[37] = test system: SF-295
[38] = test system: T47D
[39] = test system: SR
[40] = test system: SN12C
[41] = test system: COLO 205
[42] = test system: EKVX
[43] = test system: HL-60
[44] = test system: NCI-H522
[45] = test system: M14
[46] = test system: CCRF-CEM
[47] = test system: SW-620
[48] = test system: Hs-578T
[49] = test system: KM12
[50] = test system: NCI-H23
[51] = test system: MDA-MB-231
[52] = test system: SK-MEL-2
[53] = test system: SK-MEL-28
[54] = test system: Malme-3M
[55] = test system: OVCAR-4
[56] = test system: SNB-19
[57] = test system: PC-3
[58] = test system: U-251

In the case of `CC(C)C1CC=NN1C(=O)OC(C)(C)C` (stereo unspecified), the GI50 [1] is reported as > 100 µM (inactive), the GI50 [2] is reported as > 100 µM (inactive) and the GI50 [3] is reported as > 100 µM (inactive). For the same molecule, the GI50 [4] was > 100 µM (inactive), the GI50 [5] was > 100 µM (inactive) and the GI50 [6] was > 100 µM (inactive). The GI50 [7] was > 100 µM (inactive), the GI50 [8] was > 100 µM and the GI50 [9] was > 100 µM (inactive). For the same molecule, the GI50 [10] was > 100 µM (inactive), the GI50 [11] was > 100 µM (inactive) and the GI50 [12] was > 100 µM (inactive). The GI50 [13] was > 100 µM (inactive), the GI50 [14] was > 100 µM (inactive) and the GI50 [15] was > 100 µM (inactive). The GI50 [16] was > 100 µM (inactive), the GI50 [17] was > 100 µM (inactive) and the GI50 [18] was > 100 µM (inactive). For the same molecule, the GI50 [19] was > 100 µM (inactive), the GI50 [20] was > 100 µM (inactive) and the GI50 [21] was > 100 µM (inactive). The GI50 [22] was > 100 µM (inactive), the GI50 [23] was > 100 µM (inactive) and the GI50 [24] was > 100 µM (inactive). For the same molecule, the GI50 [25] was > 100 µM (inactive), the GI50 [26] was > 100 µM (inactive) and the GI50 [27] was > 100 µM (inactive). The GI50 [28] was > 100 µM (inactive), the GI50 [29] was > 100 µM (inactive) and the GI50 [30] was > 100 µM (inactive). For the same molecule, the GI50 [31] was > 100 µM (inactive), the GI50 [32] was > 100 µM (inactive) and the GI50 [33] was > 100 µM (inactive). For the same molecule, the GI50 [34] was > 100 µM (inactive), the GI50 [35] was > 100 µM (inactive) and the GI50 [36] was > 100 µM (inactive). For the same molecule, the GI50 [37] was > 100 µM (inactive), the GI50 [38] was > 100 µM (inactive) and the GI50 [39] was > 100 µM (inactive). The GI50 [40] was > 100 µM (inactive), the GI50 [41] was > 100 µM (inactive) and the GI50 [42] was > 100 µM (inactive). The GI50 [43] was > 100 µM (inactive), the GI50 [44] was > 100 µM (inactive) and the GI50 [45] was > 100 µM (inactive). The GI50 [46] was > 100 µM (inactive), the GI50 [47] was > 100 µM (inactive) and the GI50 [48] was > 100 µM (inactive). For the same molecule, the GI50 [49] was > 100 µM (inactive) and the GI50 [50] was > 100 µM (inactive).
In the case of `NC(CN(O)N=O)C(=O)O` (stereo unspecified) [LALANOSINE], the GI50 [4] is reported as 1.42 µM (inactive) and 1.82 µM (inactive), the GI50 [5] is reported as 40 µM (inactive) and 29.2 µM (inactive) and the GI50 [7] is reported as 268 nM (active) and 204 nM (active). For the same molecule, the GI50 [9] was 412 nM (active) and 333 nM (active), the GI50 [11] was 18.7 µM (inactive) and the GI50 [12] was 10.1 µM (inactive) and 17.7 µM (inactive). For the same molecule, the GI50 [51] was 87.9 µM (inactive), the GI50 [18] was 3.73 µM (inactive) and 4.13 µM (inactive) and the GI50 [23] was 8.63 µM (inactive). For the same molecule, the GI50 [26] was 12.5 µM (inactive) and 23.8 µM (inactive), the GI50 [31] was > 100 µM (inactive) and the GI50 [37] was 8.36 µM (inactive) and 8.63 µM (inactive). For the same molecule, the GI50 [38] was 87.9 µM (inactive), the GI50 [43] was 11.4 µM (inactive) and the GI50 [49] was 304 nM (active) and 360 nM (active). The GI50 [52] was > 100 µM (inactive) and 70 µM (inactive).
`O/N=C1\CC2(N3CCOCC3)CCC1(Cc1ccccc1)CC2` was tested, and the GI50 [1] was > 100 µM (inactive), the GI50 [2] was > 100 µM (inactive) and the GI50 [3] was > 100 µM (inactive). The GI50 [4] was 22.3 µM (inactive), the GI50 [5] was > 100 µM (inactive) and the GI50 [6] was > 100 µM (inactive). For the same molecule, the GI50 [7] was > 100 µM (inactive), the GI50 [8] was > 100 µM and the GI50 [9] was 2.55 µM (inactive). For the same molecule, the GI50 [10] was 21.1 µM (inactive), the GI50 [11] was 61.1 µM (inactive) and the GI50 [12] was > 100 µM (inactive). For the same molecule, the GI50 [13] was > 100 µM (inactive), the GI50 [14] was 23 µM (inactive) and the GI50 [15] was 28.6 µM (inactive). The GI50 [51] was 26.2 µM (inactive), the GI50 [16] was 35 µM (inactive) and the GI50 [53] was > 100 µM (inactive). For the same molecule, the GI50 [54] was 66.4 µM (inactive), the GI50 [17] was > 100 µM (inactive) and the GI50 [18] was > 100 µM (inactive). For the same molecule, the GI50 [19] was > 100 µM (inactive), the GI50 [21] was 64.3 µM (inactive) and the GI50 [55] was 32.5 µM (inactive). For the same molecule, the GI50 [22] was 13.5 µM (inactive), the GI50 [23] was 23.2 µM (inactive) and the GI50 [24] was 30.9 µM (inactive). The GI50 [25] was 43.6 µM (inactive), the GI50 [26] was 23.4 µM (inactive) and the GI50 [27] was > 100 µM (inactive). The GI50 [28] was 30.5 µM (inactive), the GI50 [56] was 24.1 µM (inactive) and the GI50 [29] was > 10 µM (inactive). For the same molecule, the GI50 [30] was 35.6 µM (inactive), the GI50 [31] was > 100 µM (inactive) and the GI50 [32] was > 100 µM (inactive). For the same molecule, the GI50 [33] was 32 µM (inactive), the GI50 [34] was 19 µM (inactive) and the GI50 [35] was > 100 µM (inactive). For the same molecule, the GI50 [57] was > 100 µM (inactive), the GI50 [37] was 22.9 µM (inactive) and the GI50 [58] was 19.4 µM (inactive). The GI50 [38] was 32 µM (inactive), the GI50 [39] was > 100 µM (inactive) and the GI50 [40] was > 100 µM (inactive). For the same molecule, the GI50 [41] was > 100 µM (inactive), the GI50 [42] was > 100 µM (inactive) and the GI50 [43] was > 100 µM (inactive). The GI50 [44] was 43.4 µM (inactive), the GI50 [45] was > 100 µM (inactive) and the GI50 [46] was > 100 µM (inactive). The GI50 [47] was > 100 µM (inactive), the GI50 [49] was > 100 µM (inactive) and the GI50 [52] was 37.4 µM (inactive). For the same molecule, the GI50 [50] was 64.1 µM (inactive).
`CN1C2CC(C#N)C1C=CC2=O` (stereo unspecified) was tested, and the GI50 [2] was 33.3 µM (inactive) and 57.8 µM (inactive), the GI50 [28] was 43.1 µM (inactive) and 24.8 µM (inactive) and the GI50 [56] was 87.1 µM (inactive). The GI50 [43] was 18.9 µM (inactive) and 34.1 µM (inactive) and the GI50 [52] was 29 µM (inactive) and 33.7 µM (inactive).
